Calls of active or inactive are those of the source. No cut-off for these calls is given here.
Experiments:
[1] = biological target: Sucrase-isomaltase, intestinal (Rattus norvegicus) (UniProt P23739); test: Inhibitory activity against rat alpha-glucosidase; mild activity observed
[2] = Inhibitory activity against yeast alpha-glucosidase; active; details: Saccharomyces cerevisiae
[3] = biological target: Sucrase-isomaltase, intestinal (Rattus norvegicus) (UniProt P23739); test: Inhibitory activity against rat alpha-glucosidase; moderate activity observed
[4] = Inhibitory activity against yeast alpha-glucosidase; mild activity observed; details: Saccharomyces cerevisiae

Sucrase-isomaltase, intestinal (Rattus norvegicus), sequence (P23739 1-1013 limits assumed): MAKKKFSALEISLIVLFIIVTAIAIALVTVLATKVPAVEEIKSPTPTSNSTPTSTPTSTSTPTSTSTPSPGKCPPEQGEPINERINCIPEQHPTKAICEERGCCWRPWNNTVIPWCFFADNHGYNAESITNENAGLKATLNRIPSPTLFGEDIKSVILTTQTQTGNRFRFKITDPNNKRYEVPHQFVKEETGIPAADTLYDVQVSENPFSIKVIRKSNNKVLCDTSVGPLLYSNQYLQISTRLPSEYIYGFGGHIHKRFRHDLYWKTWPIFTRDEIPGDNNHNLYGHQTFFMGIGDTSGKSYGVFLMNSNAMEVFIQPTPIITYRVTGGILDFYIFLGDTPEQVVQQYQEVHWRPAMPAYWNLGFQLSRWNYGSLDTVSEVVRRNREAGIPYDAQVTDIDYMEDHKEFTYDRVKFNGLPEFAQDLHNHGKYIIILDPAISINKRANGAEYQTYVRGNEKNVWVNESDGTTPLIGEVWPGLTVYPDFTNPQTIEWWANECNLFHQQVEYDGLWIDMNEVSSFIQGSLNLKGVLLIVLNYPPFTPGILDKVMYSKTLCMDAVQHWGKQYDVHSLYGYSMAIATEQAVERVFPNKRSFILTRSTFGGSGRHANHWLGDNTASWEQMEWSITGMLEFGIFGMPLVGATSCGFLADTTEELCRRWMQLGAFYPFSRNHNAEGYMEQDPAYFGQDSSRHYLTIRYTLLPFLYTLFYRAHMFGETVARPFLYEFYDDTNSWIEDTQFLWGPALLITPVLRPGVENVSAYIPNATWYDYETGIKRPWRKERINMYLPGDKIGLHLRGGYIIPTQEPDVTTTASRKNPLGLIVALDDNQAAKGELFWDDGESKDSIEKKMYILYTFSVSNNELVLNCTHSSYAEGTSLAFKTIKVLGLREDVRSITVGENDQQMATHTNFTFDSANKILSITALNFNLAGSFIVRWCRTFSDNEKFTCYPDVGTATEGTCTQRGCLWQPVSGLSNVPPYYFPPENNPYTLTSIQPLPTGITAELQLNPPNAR
Sucrase-isomaltase, intestinal (Rattus norvegicus), sequence (P23739 1014-1841 limits assumed): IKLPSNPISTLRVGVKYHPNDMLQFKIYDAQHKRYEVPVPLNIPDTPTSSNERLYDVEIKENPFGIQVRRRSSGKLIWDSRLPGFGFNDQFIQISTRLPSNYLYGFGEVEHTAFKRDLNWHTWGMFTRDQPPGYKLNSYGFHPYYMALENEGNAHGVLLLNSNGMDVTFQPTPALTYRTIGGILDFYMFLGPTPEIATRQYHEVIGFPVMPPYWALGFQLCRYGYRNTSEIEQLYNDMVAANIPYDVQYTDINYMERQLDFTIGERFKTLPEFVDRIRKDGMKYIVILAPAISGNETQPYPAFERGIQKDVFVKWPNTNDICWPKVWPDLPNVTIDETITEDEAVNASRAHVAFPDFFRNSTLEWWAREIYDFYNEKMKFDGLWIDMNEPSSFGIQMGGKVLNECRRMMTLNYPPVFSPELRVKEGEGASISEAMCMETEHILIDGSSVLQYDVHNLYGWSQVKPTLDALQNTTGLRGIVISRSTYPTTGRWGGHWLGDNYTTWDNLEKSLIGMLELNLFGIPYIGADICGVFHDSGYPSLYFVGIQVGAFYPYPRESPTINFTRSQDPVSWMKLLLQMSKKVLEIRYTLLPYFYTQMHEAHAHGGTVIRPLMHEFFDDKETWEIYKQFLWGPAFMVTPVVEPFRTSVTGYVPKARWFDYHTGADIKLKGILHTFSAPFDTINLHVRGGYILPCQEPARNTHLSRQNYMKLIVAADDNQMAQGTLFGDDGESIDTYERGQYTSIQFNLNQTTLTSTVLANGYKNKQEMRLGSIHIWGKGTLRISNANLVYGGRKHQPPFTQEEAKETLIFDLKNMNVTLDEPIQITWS

SMILES	inhibition [1]	inhibition [2]	inhibition [3]	inhibition [4]
COc1ccc(/C=C/c2cc(O)cc(O[C@@H]3C[C@H](CO)[C@@H](O)[C@H](O)[C@H]3O)c2)cc1	Weak activity			
Cc1cc(O)c2c(c1)C(=O)c1cccc(O[C@@H]3C[C@H](CO)[C@@H](O)[C@H](O)[C@H]3O)c1C2=O		Active	moderate activity observed	
COc1cc(O)c2c(c1)C(=O)c1cc(C)cc(O)c1C2=O	Weak activity			Weak activity
Cc1cc(=O)c2c(O)cc(O)cc2o1	Weak activity			Weak activity
COc1ccc(/C=C/c2cc(O)cc(O)c2)cc1O		Active		
COc1cc(O[C@@H]2C[C@H](CO)[C@@H](O)[C@H](O)[C@H]2O)c2c(O)c(C(C)=O)c(C)cc2c1		Active	moderate activity observed	
